Results as given in US10800778B2 (Entasis Therapeutics Limited, priority 2016, dated 2020).
pIC50: −log10 of the molar value. Structures can show the parent of a compound that is named as a salt.

Legend:
[1] = Stability/conversion of esters in rat intestinal S9; format: in vitro ADME
Description: (§1) The human intestinal S9 with the absence of PMSF, human liver S9, rat intestinal S9, and rat liver S9 preparations were obtained from Xenotech (Lenexa, Kans.). The 500-μL incubation solution contained 0.8 mg/mL of enzyme (or no enzyme for buffer stability), 10 μM of test compounds in 100 mM of HEPES buffer, pH 7.4. The hydrolysis reactions were conducted in a 1-mL glass insert (Analytical Sales, Pompton Plains, N.J.) in a shake water bath at 37° C. At 0, 2, 5, 10, 15, 30 and 60 min, the reaction was terminated by pipetting 50 μL incubate to a 96 DeepWell plate (Thermo Fisher Scientific, Rochester, N.Y.) containing 100 μL of acetonitrile with 250 ng/mL of Carbutamide (Sigma-Aldrich, St. Louis, Miss.) as the internal standard. The crashed solutions were then vortexed well followed by centrifuge at 4000 rpm for 15 min at 4° C. The extract was transferred to a new 96 DeepWell plate for LC-MS/MS analysis.
(§2) LC-MS/MS analysis was done using an AB Sciex QTrap 6500 mass spectrometer under positive ionization mode, coupled to a Schimadzu Nexera LC system.
(§3) A Waters Atlantis T3 (3 μm, 3.0×50 mm) column was used for separation. The mobile phase consisted 0.1% formic acid in water (A) and 0.1% formic acid in acetonitrile (B) with a flow rate set at 1.2 mL/min. For the prodrug analysis, the Multiple Reaction Monitoring (MRM) specific for each compound was set up so that both prodrug and its hydrolyzed active can be monitored simultaneously.
(§4) Half-lives listed are based on disappearance of starting ester.

[2] = Stability/conversion of esters in rat liver S9; format: in vitro ADME
Description: as §1, §2, §3, §4

[3] = Stability/conversion of esters in human liver S9; format: in vitro ADME
Description: as §1, §2, §3, §4

[4] = Stability in pH 7.4 buffer (no enzyme); format: physicochemical; details: read-out: T1/2 pH 7.4 Buffer
Description: as §1, §2, §3, §4

[5] = Stability/conversion of esters in human intestinal S9; format: in vitro ADME
Description: as §1, §2, §3, §4

[6] = biological target: TEM-1 (Class A beta-lactamase) (Escherichia coli, UniProt P62593); assay: Inhibition of beta-lactamase enzymes (nitrocefin hydrolysis), TEM-1; format: biochemical; details: read-out: Class A TEM-1 60 min IC50, nitrocefin 100 μM
Description: (§5) A buffer consisting of 0.1 M sodium phosphate (pH 7.0), 10 mM NaHCO3, and 0.005% Triton X-100 was used for all enzymes. The chromogenic substrate nitrocefin (SynGene, Bangalore, India) was used at 100 μM. Enzyme activity was monitored by the 490 nm absorbance increase upon nitrocefin hydrolysis. Assays were performed in clear polystyrene 384-well plates (Greiner Bio-One, Monroe, N.C.). Absorbance was measured for 1 hour at 30-s intervals using a Spectramax absorbance plate reader (Molecular Devices, Sunnyvale, Calif.). Measurement of beta-lactamase inhibition by INHIBITOR employed serial 3-fold dilutions of the inhibitor in assay buffer, ranging from 100 μM to 62.7 pM. A background absorbance progress curve for a control lacking enzyme and inhibitor was subtracted from each progress curve.
(§6) The complete set of progress curves for one enzyme with all inhibitor concentrations was subjected to numerical integration with the program Kintek Global Kinetic Explorer (Kintek Corp, Snowshoe Pa.) to obtain a best-fit to the mechanism shown in Scheme 10.
(§7) where E, S, ES, P, I, and EI are the concentrations of the enzyme, nitrocefin, the enzyme-nitrocefin complex, the nitrocefin hydrolysis product, INHIBITOR, and the enzyme-INHIBITOR complex respectively. […] The values of k+2, k+3, and k−3 were fit. Concentration series offsets of the absorbance measurements were used to correct for slight absorbance baseline differences between wells. The parameter k+3 is equivalent to the second order rate constant kinact/Ki. In some cases, the inhibition was in rapid equilibrium on the experimental time scale, so that only the ratio k−3/k+3=Ki could be determined. Although k−3 represents reversal of inhibitor binding in Scheme 10, hydrolysis of the enzyme-inhibitor complex could not be excluded based on kinetic measurements.
(§8) Best-fit absorbance values from the above procedure at each time point for each compound concentration were exported to Excel.
(§9) where A is the best-fit absorbance without inhibitor and Ainhib is the best-fit absorbance in the presence of the inhibitor.
(§10) where [I] is the inhibitor concentration and n is the Hill coefficient. The Excel add-in XLfit (ID Business Solutions) was used for nonlinear regression.

[7] = biological target: OXA-48 (Class D beta-lactamase) (Klebsiella pneumoniae, UniProt Q6XEC0); assay: Inhibition of beta-lactamase enzymes (nitrocefin hydrolysis), OXA-48; format: biochemical; details: read-out: Class D OXA-48 60 min IC50, nitrocefin 100 μM
Description: as §5, §6, §7, §8, §9, §10

[8] = s9, pH 7.4, read-out: T1/2 Rat Intestinal S9
[9] = s9, pH 7.4, read-out: T1/2 Rat Liver S9
[10] = s9, pH 7.4, read-out: T1/2 Human Liver S9
[11] = s9, pH 7.4, read-out: T1/2 Human Intestinal S9
[12] = intestinal S9, pH 7.4, read-out: T1/2 Rat Intestinal S9
[13] = liver S9, pH 7.4, read-out: T1/2 Rat Liver S9
[14] = liver S9, pH 7.4, read-out: T1/2 Human Liver S9
[15] = intestinal S9 (without PMSF), pH 7.4, read-out: T1/2 Human Intestinal S9

Chain of TEM-1 (Class A beta-lactamase) (P62593 whole entry, looked up, species assumed): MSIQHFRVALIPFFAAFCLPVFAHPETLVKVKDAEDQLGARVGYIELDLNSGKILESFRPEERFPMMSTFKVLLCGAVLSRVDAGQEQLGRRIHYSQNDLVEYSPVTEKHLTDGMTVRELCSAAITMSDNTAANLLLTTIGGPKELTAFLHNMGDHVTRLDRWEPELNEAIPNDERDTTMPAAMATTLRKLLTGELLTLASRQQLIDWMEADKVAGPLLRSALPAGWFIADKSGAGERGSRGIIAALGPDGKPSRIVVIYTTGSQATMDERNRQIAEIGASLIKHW
Chain of OXA-48 (Class D beta-lactamase) (Q6XEC0 whole entry, looked up, species assumed): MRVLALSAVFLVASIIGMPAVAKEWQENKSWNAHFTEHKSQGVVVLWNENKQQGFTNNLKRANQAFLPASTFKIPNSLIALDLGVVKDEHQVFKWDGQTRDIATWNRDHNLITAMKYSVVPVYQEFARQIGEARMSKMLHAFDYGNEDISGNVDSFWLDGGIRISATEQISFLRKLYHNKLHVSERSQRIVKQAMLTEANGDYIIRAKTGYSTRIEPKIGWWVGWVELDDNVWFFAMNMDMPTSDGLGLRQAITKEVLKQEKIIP

CCOC(=O)[C@H](F)ON1C(=O)N2C[C@H]1C(C)=C[C@H]2C(N)=O [Example 32, (2S)-ethyl 2-(((2S,5R)-2-carbamoyl-4-methyl-7-oxo-1,6-diazabicyclo[3.2.1]oct-3-en-6-yl)oxy)-2-fluoroacetate]
half-life at 10 μM [1, 8]: 18 min
half-life at 10 μM [2, 9]: 2.4 min
half-life at 10 μM [3, 10]: 2.4 min
half-life at 10 μM ([4]; buffer): 22 min
half-life at 10 μM [5, 11]: 6.9 min

CCOC(=O)[C@@H](F)ON1C(=O)N2C[C@H]1C(C)=C[C@H]2C#N [Example 94, ethyl (2R)-2-(((2S,5R)-2-cyano-4-methyl-7-oxo-1,6-diazabicyclo[3.2.1]oct-3-en-6-yl)oxy)-2-fluoroacetate]
half-life at 10 μM [1, 8]: 25.9 min
half-life at 10 μM [2, 9]: 1.3 min
half-life at 10 μM ([4]; buffer): 46.9 min
half-life at 10 μM [5, 11]: 10.6 min

CCOC(=O)CON1C(=O)N2C[C@H]1C(C)=C[C@H]2C(N)=O [Example 92, ethyl 2-(((2S,5R)-2-carbamoyl-4-methyl-7-oxo-1,6-diazabicyclo[3.2.1]oct-3-en-6-yl)oxy)acetate]
half-life at 10 μM [1, 12]: 397 min
half-life at 10 μM [2, 13]: 11 min
half-life at 10 μM [3, 14]: 24.8 min
half-life at 10 μM ([4]; HEPES buffer without enzyme): 161 min
half-life at 10 μM [5, 15]: 193 min

CC1=C[C@@H]2CN(C(=O)N2O[C@H](F)C(=O)OCOC(=O)C(C)(C)C)[C@@H]1C(N)=O [Example 64, [(2R)-2-[[(2S,5R)-2-carbamoyl-3-methyl-7-oxo-1,6-diazabicyclo[3.2.1]oct-3-en-6-yl]oxy]-2-fluoro-acetyl]oxymethyl 2,2-dimethylpropanoate]
half-life at 10 μM [1, 12]: 1.1 min
half-life at 10 μM [2, 13]: < 1 min
half-life at 10 μM [3, 14]: < 1 min
half-life at 10 μM ([4]; HEPES buffer without enzyme): 1.2 min
half-life at 10 μM [5, 15]: < 1 min

CCC(CC)OC(=O)[C@@H](F)ON1C(=O)N2C[C@H]1C=C(C)[C@H]2C(N)=O [Example 24, (R)-pentan-3-yl 2-((2S,5R)-2-carbamoyl-3-methyl-7-oxo-1,6-diazabicyclo[3.2.1]oct-3-en-6-yloxy)-2-fluoroacetate]
half-life at 10 μM [3, 10]: 9 min
half-life at 10 μM ([4]; buffer): > 100 min
half-life at 10 μM [5, 11]: 34 min

CC1=C[C@@H]2CN(C(=O)N2O[C@@H](F)C(=O)OC(C)C)[C@@H]1C(N)=O [Example 13, propan-2-yl (2S)-{[(2S,5R)-2-carbamoyl-3-methyl-7-oxo-1,6-diazabicyclo[3.2.1]oct-3-en-6-yl]oxy}(fluoro)ethanoate]
half-life at 10 μM [3, 14]: 1 min
half-life at 10 μM ([4]; HEPES buffer without enzyme): 55 min
half-life at 10 μM [5, 15]: 44 min

CC(=O)NNC(=O)[C@@H]1C(C)=C[C@@H]2CN1C(=O)N2OC(F)C(=O)O (stereo partly drawn) [Example 27, 2-(((2S,5R)-2-(2-acetylhydrazinecarbonyl)-3-methyl-7-oxo-1,6-diazabicyclo[3.2.1]oct-3-en-6-yl)oxy)-2-fluoroacetic acid lithium salt]
pIC50 [6]: 7.33
pIC50 [7]: 7.74

CC1=C[C@@H]2CN(C(=O)N2O[C@@H](F)C(=O)O)[C@@H]1C(=O)NCc1cnccn1 [Example 69, (2S)-2-fluoro-2-[[(2S,5R)-3-methyl-7-oxo-2-(pyrazin-2-ylmethyl-carbamoyl)-1,6-diazabicyclo[3.2.1]oct-3-en-6-yl]oxy]acetic acid lithium salt]
pIC50 [6]: 6.74
pIC50 [7]: 6.96

CC1=C[C@@H]2CN(C(=O)N2O[C@@H](F)C(=O)O)[C@@H]1C(=O)NOCC1CC1 [Example 70, (2S)-2-[[(2S,5R)-2-(cyclopropylmethoxycarbamoyl)-3-methyl-7-oxo-1,6-diazabicyclo[3.2.1]oct-3-en-6-yl]oxy]-2-fluoro-acetic acid lithium salt]
pIC50 [6]: 7.59
pIC50 [7]: 7.06

CC1=C[C@@H]2CN(C(=O)N2O[C@@H](F)C(=O)O)[C@@H]1C(=O)NCc1ncco1 [Example 68, (2S)-2-fluoro-2-[[(2S,5R)-3-methyl-2-(oxazol-2-ylmethylcarbamoyl)-7-oxo-1,6-diazabicyclo[3.2.1]oct-3-en-6-yl]oxy]lacetic acid lithium salt]
pIC50 [6]: 6.51
pIC50 [7]: 7.11

CC1=C[C@@H](C#N)N2C[C@@H]1N(O[C@H](F)C(=O)O)C2=O [Example 95, (2R)-2-(((2S,5R)-2-cyano-4-methyl-7-oxo-1,6-diazabicyclo[3.2.1]oct-3-en-6-yl)oxy)-2-fluoroacetic acid lithium salt]
pIC50 [6]: 7.46
pIC50 [7]: 8.89

CC1=C[C@@H](C(N)=O)N2C[C@@H]1N(OC(F)(F)C(=O)O)C2=O [Example 91, 2-(((2S,5R)-2-carbamoyl-4-methyl-7-oxo-1,6-diazabicyclo[3.2.1]oct-3-en-6-yl)oxy)-2,2-difluoroacetic acid lithium salt]
pIC50 [6]: 9.33
pIC50 [7]: 7.74

CC1=C[C@@H]2CN(C(=O)N2O[C@@H](F)C(=O)O)[C@@H]1CNC(=O)C(F)(F)F [Example 79, (2S)-2-fluoro-2-[[(2S,5R)-3-methyl-7-oxo-2-[[(2,2,2-trifluoroacetyl)-aminolmethyl]-1,6-diazabicyclo[3.2.1]oct-3-en-6-yl]oxy]acetic acid lithium salt]
pIC50 [6]: 5.38
pIC50 [7]: 5.24

CC1=C[C@@H]2CN(C(=O)N2O[C@@H](F)C(=O)O)[C@@H]1C(=O)NCC#N [Example 82, (2S)-2-fluoro-2-[[(2S,5R)-2-(cyanomethylcarbamoyl)-3-methyl-7-oxo-1,6-diazabicyclo[3.2.1]oct-3-en-6-yl]oxy]acetic acid lithium salt]
pIC50 [6]: 7.07
pIC50 [7]: 7.55

CC1=C[C@@H]2CN(C(=O)N2O[C@@H](F)C(=O)O)[C@@H]1CNC(=O)OC(C)(C)C [Example 76, (2S)-2-[[(2S,5R)-2-[tert-butoxycarbonylamino)methyl]-3-methyl-7-oxo-1,6-diazabicyclo[3.2.1]oct-3-en-6-yl]oxy]-2-fluoro-acetic acid lithium salt]
pIC50 [6]: 6.03
pIC50 [7]: 6.66

CC1=C[C@@H]2CN(C(=O)N2OC(F)C(=O)O)[C@@H]1C(=O)NCc1cnccn1 (stereo partly drawn) [Example 30, 2-fluoro-2-(((2S,5R)-3-methyl-7-oxo-2-((pyrazin-2-ylmethyl)carbamoyl)-1,6-diazabicyclo[3.2.1]oct-3-en-6-yl)oxy)acetic acid lithium salt]
pIC50 [6]: 7.09
pIC50 [7]: 6.85

CC1=C[C@@H]2CN(C(=O)N2OC(F)C(=O)O)[C@@H]1C(N)=O (mixture of isomers) [Example 5, {[(2S,5R)-2-carbamoyl-3-methyl-7-oxo-1,6-diazabicyclo[3.2.1]oct-3-en-6-yl]oxy}(fluoro)acetic acid lithium salt (mixture of diastereomers)]
pIC50 [6]: 8.36
pIC50 [7]: 7.77

CC1=C[C@@H]2CN(C(=O)N2OC(F)(F)C(=O)O)[C@@H]1C(N)=O [Example 8, {[(2S,5R)-2-carbamoyl-3-methyl-7-oxo-1,6-diazabicyclo[3.2.1]oct-3-en-6-yl]oxy}(difluoro)acetic acid lithium salt]
pIC50 [6]: 8.82
pIC50 [7]: 7.85
